Consider 2 compounds from patent publication US20080268024A1, “Compositions for Oral and/or Topical Administration” (priority 2004, published 2008).

Test [1] has as its system Bifidobacterium. Put plainly: Stimulation of growth: enumeration of Bifidobacterium in vitro in human fecal homogenate culture. It is filed as cell-based, Bifidobacterium spp. The note with it: 1% test substance or mixture, human fecal homogenate in diluted WC broth, incubated up to 24 hours, control 1.0 × 10^6. The procedure:
(§1) The stimulation of growth of micro-organisms has been studied by enumerating bifidobacterium and lactobacilli in vitro in the presence of various test substances:
(§2) Aliquots (1 mL) of human fecal homogenates (10 g per 100 mL diluent) were added to diluted WC broth (diluted 50:50 with 0.05M phosphate buffer) to which were added the test mixtures and a lactobacillus or bifidobacterium strain. For each of the combinations, parallel tubes were prepared with one set being inoculated with Bifidobacterium spp or Lactobacillus spp. All mixtures were then incubated for up to 24 hours and bacterial numbers determined. The results are presented in Tables 1 and 2 (amount of extract calculated on active content): […]

In test [2] the test system is Lactobacterium. Put plainly: Stimulation of growth: enumeration of lactobacilli in vitro in human fecal homogenate culture. In kind it is cell-based, Lactobacillus spp. The following applies: 1% test substance or mixture, human fecal homogenate in diluted WC broth, incubated up to 24 hours, control 2.8 × 10^5. How it is done:
as §1, §2

Turning to `OC[C@H]1O[C@@H](O[C@H]2[C@H](O)[C@@H](O)[C@@H](O[C@]3(CO)O[C@H](CO)[C@@H](O)[C@@H]3O)O[C@@H]2CO)[C@H](O)[C@@H](O)[C@H]1O` [C2, Lactosucrose], the results for the “Bacterial numbers CFU/ml” value in test [1] and in test [2] were 1.1 × × 10^7 CFU/ml and 1.1 × × 10^6 CFU/ml, respectively.

As to Lactolin [C3], the entries for the “Bacterial numbers CFU/ml” value in test [1] and in test [2] were 1.6 × × 10^7 CFU/ml and 1.5 × × 10^6 CFU/ml, respectively.
